In PubChem BioAssay AID2060513 (Molecular Pharmacology Branch, DTP, NCI, 2025):

Tested on: 299254-011-R-J1-PDC complex spheroids viability
Assay: Anticancer human tumor 299254-011-R-J1-PDC patient-derived melanoma cell line growth inhibition [GQUAD]
Settings: for IC50: curve of first compound; for viability, T/C: stronger effect = lower value
Summary of the method: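 Tumor cells were grown as complex spheroids with HUVEC endothelial cells and mesenchymal stem cells as stroma. G-quadruplex stabilizers were combined with targeted agents over half-log dilutions from near the clinical Cmax, or from 10 microM.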

[1] = second compound 0.0316 µM, first compound 0.0316 µM
[2] = second compound 0.0316 µM, first compound 0.316 µM
[3] = second compound 0.1 µM, first compound 0.0316 µM
[4] = second compound 0.1 µM, first compound 0.316 µM
[5] = second compound 0.316 µM, first compound 0.0316 µM
[6] = second compound 0.316 µM, first compound 0.316 µM
[7] = second compound 1 µM, first compound 0.0316 µM
[8] = second compound 1 µM, first compound 0.316 µM
[9] = second compound 3.16 µM, first compound 0.0316 µM
[10] = second compound 3.16 µM, first compound 0.316 µM
[11] = second compound 10 µM, first compound 0.0316 µM
[12] = second compound 10 µM, first compound 0.316 µM
[13] = second compound 0.0316 µM, first compound 0.000999 µM
[14] = second compound 0.0316 µM, first compound 0.00316 µM
[15] = second compound 0.0316 µM, first compound 0.00999 µM
[16] = second compound 0.0316 µM, first compound 0.0999 µM
[17] = second compound 0.1 µM, first compound 0.000999 µM
[18] = second compound 0.1 µM, first compound 0.00316 µM
[19] = second compound 0.1 µM, first compound 0.00999 µM
[20] = second compound 0.1 µM, first compound 0.0999 µM
[21] = second compound 0.316 µM, first compound 0.000999 µM
[22] = second compound 0.316 µM, first compound 0.00316 µM
[23] = second compound 0.316 µM, first compound 0.00999 µM
[24] = second compound 0.316 µM, first compound 0.0999 µM
[25] = second compound 1 µM, first compound 0.000999 µM
[26] = second compound 1 µM, first compound 0.00316 µM
[27] = second compound 1 µM, first compound 0.00999 µM
[28] = second compound 1 µM, first compound 0.0999 µM
[29] = second compound 3.16 µM, first compound 0.000999 µM
[30] = second compound 3.16 µM, first compound 0.00316 µM
[31] = second compound 3.16 µM, first compound 0.00999 µM
[32] = second compound 3.16 µM, first compound 0.0999 µM
[33] = second compound 10 µM, first compound 0.000999 µM
[34] = second compound 10 µM, first compound 0.00316 µM
[35] = second compound 10 µM, first compound 0.00999 µM
[36] = second compound 10 µM, first compound 0.0999 µM
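Further: spheroids exposed to the agents for seven days before readout.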
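Wherever viability, T/C is given: percent viability relative to DMSO vehicle control wells = 100%.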

`Nc1ccn(C2OC(CO)C(O)C2(F)F)c(=O)n1` (stereo unspecified) + CN(C)c1ccc(Nc2c3ccc(NC(=O)CCN4CCCC4)cc3nc3cc(NC(=O)CCN4CCCC4)ccc23)cc1 showed an IC50 (second compound 0.0316 µM) greater than 10 µM, an IC50 (second compound 0.1 µM) greater than 10 µM and an IC50 (second compound 0.316 µM) of 3.16 µM. The IC50 (second compound 1 µM) was greater than 10 µM, the IC50 (second compound 3.16 µM) was greater than 10 µM and the IC50 (second compound 10 µM) was greater than 10 µM. It also gave a viability, T/C [1] of 84%, a viability, T/C (second compound 0.0316 µM, first compound 0.1 µM) of 73.5% and a viability, T/C [2] of 66.9%. The viability, T/C (second compound 0.0316 µM, first compound 1 µM) was 60.4%, the viability, T/C (second compound 0.0316 µM, first compound 3.16 µM) was 54.7% and the viability, T/C (second compound 0.0316 µM, first compound 10 µM) was 59.3%. The viability, T/C [3] was 80.3%, the viability, T/C (second compound 0.1 µM, first compound 0.1 µM) was 94.6% and the viability, T/C [4] was 67.1%. For the same compound, the viability, T/C (second compound 0.1 µM, first compound 1 µM) was 56.6%, the viability, T/C (second compound 0.1 µM, first compound 3.16 µM) was 58.1% and the viability, T/C (second compound 0.1 µM, first compound 10 µM) was 59.7%. It also gave a viability, T/C [5] of 85.2%, a viability, T/C (second compound 0.316 µM, first compound 0.1 µM) of 117% and a viability, T/C [6] of 51.7%. It also gave a viability, T/C (second compound 0.316 µM, first compound 1 µM) of 59.6%, a viability, T/C (second compound 0.316 µM, first compound 3.16 µM) of 68.3% and a viability, T/C (second compound 0.316 µM, first compound 10 µM) of 56.7%. The viability, T/C [7] was 93.5%, the viability, T/C (second compound 1 µM, first compound 0.1 µM) was 81.2% and the viability, T/C [8] was 68.7%. The viability, T/C (second compound 1 µM, first compound 1 µM) was 57.8%, the viability, T/C (second compound 1 µM, first compound 3.16 µM) was 63% and the viability, T/C (second compound 1 µM, first compound 10 µM) was 72.9%. The viability, T/C [9] was 94.1%, the viability, T/C (second compound 3.16 µM, first compound 0.1 µM) was 98.1% and the viability, T/C [10] was 71.3%. It also gave a viability, T/C (second compound 3.16 µM, first compound 1 µM) of 59.7%, a viability, T/C (second compound 3.16 µM, first compound 3.16 µM) of 55.6% and a viability, T/C (second compound 3.16 µM, first compound 10 µM) of 59%. For the same compound, the viability, T/C [11] was 105%, the viability, T/C (second compound 10 µM, first compound 0.1 µM) was 80.1% and the viability, T/C [12] was 65.6%. The viability, T/C (second compound 10 µM, first compound 1 µM) was 64.3%, the viability, T/C (second compound 10 µM, first compound 3.16 µM) was 66.6% and the viability, T/C (second compound 10 µM, first compound 10 µM) was 61.6%.
Work on `Cn1ncnc1[C@H]1c2n[nH]c(=O)c3cc(F)cc(c23)N[C@@H]1c1ccc(F)cc1` + Cc1[nH]c2ccc(F)cc2c1-c1nc2c3cccnc3c3ncccc3c2[nH]1 yielded an IC50 (second compound 0.0316 µM) greater than 0.316 µM, an IC50 (second compound 0.1 µM) greater than 0.316 µM and an IC50 (second compound 0.316 µM) greater than 0.316 µM. For the same compound, the IC50 (second compound 1 µM) was greater than 0.316 µM, the IC50 (second compound 3.16 µM) was greater than 0.316 µM and the IC50 (second compound 10 µM) was greater than 0.316 µM. The viability, T/C [13] was 93.7%, the viability, T/C [14] was 105% and the viability, T/C [15] was 117%. The viability, T/C [1] was 90.2%, the viability, T/C [16] was 88.3% and the viability, T/C [2] was 101%. It also gave a viability, T/C [17] of 101%, a viability, T/C [18] of 103% and a viability, T/C [19] of 88.1%. It also gave a viability, T/C [3] of 92.7%, a viability, T/C [20] of 118% and a viability, T/C [4] of 96.2%. The viability, T/C [21] was 92.8%, the viability, T/C [22] was 108% and the viability, T/C [23] was 113%. The viability, T/C [5] was 94%, the viability, T/C [24] was 98.2% and the viability, T/C [6] was 105%. It also gave a viability, T/C [25] of 86.7%, a viability, T/C [26] of 105% and a viability, T/C [27] of 87.1%. For the same compound, the viability, T/C [7] was 112%, the viability, T/C [28] was 112% and the viability, T/C [8] was 102%. The viability, T/C [29] was 95.3%, the viability, T/C [30] was 88.2% and the viability, T/C [31] was 96.3%. For the same compound, the viability, T/C [9] was 84.6%, the viability, T/C [32] was 88.6% and the viability, T/C [10] was 118%. The viability, T/C [33] was 96.7%, the viability, T/C [34] was 111% and the viability, T/C [35] was 84%. It also gave a viability, T/C [11] of 95.7%, a viability, T/C [36] of 108% and a viability, T/C [12] of 99.5%.
Compound `Cc1[nH]c2ccccc2c1CCNCc1ccc(/C=C/C(=O)NO)cc1` + Cc1cnc(CNC(=O)c2c(=O)c3ccc(N4CCCN(C)CC4)nc3n3c2sc2ccccc23)cn1 has an IC50 (second compound 0.0316 µM) of 0.139 µM, an IC50 (second compound 0.1 µM) of 0.172 µM and an IC50 (second compound 0.316 µM) of 0.101 µM. The IC50 (second compound 1 µM) was 0.0484 µM, the IC50 (second compound 3.16 µM) was 0.0455 µM and the IC50 (second compound 10 µM) was less than 0.000999 µM. For the same compound, the viability, T/C [13] was 92.3%, the viability, T/C [14] was 84.4% and the viability, T/C [15] was 94.6%. For the same compound, the viability, T/C [1] was 80.3%, the viability, T/C [16] was 65.2% and the viability, T/C [2] was 14.4%. It also gave a viability, T/C [17] of 92.7%, a viability, T/C [18] of 106% and a viability, T/C [19] of 97.1%. The viability, T/C [3] was 80.7%, the viability, T/C [20] was 87.6% and the viability, T/C [4] was 10.7%. It also gave a viability, T/C [21] of 107%, a viability, T/C [22] of 92.4% and a viability, T/C [23] of 97.3%. The viability, T/C [5] was 91.3%, the viability, T/C [24] was 50.4% and the viability, T/C [6] was 10.3%. For the same compound, the viability, T/C [25] was 86.5%, the viability, T/C [26] was 103% and the viability, T/C [27] was 79.7%. It also gave a viability, T/C [7] of 63.4%, a viability, T/C [28] of 28.6% and a viability, T/C [8] of 4.65%. The viability, T/C [29] was 82.8%, the viability, T/C [30] was 77.7% and the viability, T/C [31] was 68.4%. The viability, T/C [9] was 63.5%, the viability, T/C [32] was 28% and the viability, T/C [10] was 0.2%. The viability, T/C [33] was 26.3%, the viability, T/C [34] was 8.63% and the viability, T/C [35] was 0.47%. It also gave a viability, T/C [11] of 0.44%, a viability, T/C [36] of 0.35% and a viability, T/C [12] of 0.26%.
